Biological target: T1, Pho1 (free form) (Ipomoea batatas, UniProt P27598)
T1 construct: native, purified from storage roots; 110-kDa band; 220-kDa homodimer
T1 sequence (P27598 44-955): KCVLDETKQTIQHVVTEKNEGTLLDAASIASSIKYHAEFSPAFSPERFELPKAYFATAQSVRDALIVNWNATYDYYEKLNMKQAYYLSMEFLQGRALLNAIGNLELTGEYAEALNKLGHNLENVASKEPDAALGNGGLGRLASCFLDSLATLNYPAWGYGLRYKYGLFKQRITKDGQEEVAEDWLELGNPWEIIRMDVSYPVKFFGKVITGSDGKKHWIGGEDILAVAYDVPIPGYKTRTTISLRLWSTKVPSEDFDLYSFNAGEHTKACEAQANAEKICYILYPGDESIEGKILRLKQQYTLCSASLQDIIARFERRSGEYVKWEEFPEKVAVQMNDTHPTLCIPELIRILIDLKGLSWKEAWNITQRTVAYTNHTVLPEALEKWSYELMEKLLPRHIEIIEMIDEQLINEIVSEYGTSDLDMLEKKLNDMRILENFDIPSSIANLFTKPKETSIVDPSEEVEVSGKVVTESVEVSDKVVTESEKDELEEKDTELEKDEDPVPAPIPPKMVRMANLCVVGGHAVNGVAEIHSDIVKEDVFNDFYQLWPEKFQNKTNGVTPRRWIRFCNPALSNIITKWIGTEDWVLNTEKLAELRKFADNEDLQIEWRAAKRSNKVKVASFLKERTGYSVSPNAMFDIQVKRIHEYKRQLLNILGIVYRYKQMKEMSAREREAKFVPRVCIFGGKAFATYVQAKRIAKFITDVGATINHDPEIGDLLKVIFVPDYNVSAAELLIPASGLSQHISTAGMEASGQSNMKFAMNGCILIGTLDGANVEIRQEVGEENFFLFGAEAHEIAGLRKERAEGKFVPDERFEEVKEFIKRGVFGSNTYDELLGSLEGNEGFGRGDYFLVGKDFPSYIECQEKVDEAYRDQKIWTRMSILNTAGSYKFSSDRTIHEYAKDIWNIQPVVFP
Test: Glc-1-P production, coupled phosphoglucomutase / Glc-6-P dehydrogenase (NADPH)
Format: biochemical
Conditions: 0.5 mM substrate, 0.5 mM inorganic phosphate, 50 mM sodium acetate pH 6.0, 37°C, 1 h; phosphorolysis

Compound: OC[C@H]1O[C@H](O[C@H]2[C@H](O)[C@@H](O)[C@@H](O[C@H]3[C@H](O)[C@@H](O)[C@@H](O[C@H]4[C@H](O)[C@@H](O)[C@@H](O[C@H]5[C@H](O)[C@@H](O)C(O)O[C@@H]5CO)O[C@@H]4CO)O[C@@H]3CO)O[C@@H]2CO)[C@H](O)[C@@H](O)[C@@H]1O (some centres unmarked) [G5, maltopentaose]
- Glc-1-P production, coupled phosphoglucomutase / Glc-6-P dehydrogenase (NADPH): displayed high catalytic activity with G5, G6, G7, or dextrin to produce Glc-1-P

Compound: OC[C@H]1O[C@H](O[C@H]2[C@H](O)[C@@H](O)[C@@H](O[C@H]3[C@H](O)[C@@H](O)[C@@H](O[C@H]4[C@H](O)[C@@H](O)[C@@H](O[C@H]5[C@H](O)[C@@H](O)[C@@H](O[C@H]6[C@H](O)[C@@H](O)C(O)O[C@@H]6CO)O[C@@H]5CO)O[C@@H]4CO)O[C@@H]3CO)O[C@@H]2CO)[C@H](O)[C@@H](O)[C@@H]1O (some centres unmarked) [G6, maltohexaose]
- Glc-1-P production, coupled phosphoglucomutase / Glc-6-P dehydrogenase (NADPH): displayed high catalytic activity with G5, G6, G7, or dextrin to produce Glc-1-P
